From patent publication US6177415A, “Bacteriohopanetetrol and related compounds useful for modulation of lipoxygenase activity and anti-inflammatory applications” (The United States of America as represented by the …, priority 1997, dated 2001)
Where two headings read alike, the source gives them in different places.

Tests used:
Prostaglandin H Synthase = biological target: T1, Prostaglandin H Synthase (Ovis aries, UniProt P05979); assay: Prostaglandin H synthase (cyclooxygenase) assay (oxygen consumption); format: biochemical
T1 construct: purchased Oxford Biomedical Research Co., Oxford, Mich
T1 sequence (P05979 25-600): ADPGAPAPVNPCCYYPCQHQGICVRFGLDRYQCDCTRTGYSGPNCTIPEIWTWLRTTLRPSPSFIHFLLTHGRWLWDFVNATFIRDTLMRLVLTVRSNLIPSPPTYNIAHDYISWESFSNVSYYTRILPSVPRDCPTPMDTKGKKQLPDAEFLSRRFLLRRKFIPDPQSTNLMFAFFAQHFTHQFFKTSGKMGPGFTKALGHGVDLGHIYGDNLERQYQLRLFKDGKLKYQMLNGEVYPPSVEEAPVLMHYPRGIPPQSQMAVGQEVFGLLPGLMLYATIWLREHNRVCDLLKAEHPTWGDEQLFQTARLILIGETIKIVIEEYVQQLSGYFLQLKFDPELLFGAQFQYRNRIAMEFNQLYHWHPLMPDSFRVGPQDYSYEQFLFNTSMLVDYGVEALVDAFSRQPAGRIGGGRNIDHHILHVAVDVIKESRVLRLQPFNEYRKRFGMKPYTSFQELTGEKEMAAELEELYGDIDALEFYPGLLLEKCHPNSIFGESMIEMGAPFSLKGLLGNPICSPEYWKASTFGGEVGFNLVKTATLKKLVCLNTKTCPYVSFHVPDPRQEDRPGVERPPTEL
Experimental: Prostaglandin H synthase was obtained from Oxford Biomedical Research Co., Oxford, Mich. The reaction mixture (1.80 ml) consisted of 0.5 mM phenol, 1 μM hematin, enzyme (3.75 μg in 5 μl), 25 μl of inhibitor dissolved in ethanol, and potassium phosphate buffer (0.1 M, pH 7.8), and was preincubated for 3 min. The reaction was started by injecting 15 μl of arachidonic acid dissolved in ethanol, yielding a final concentration of 100 μM arachidonic acid in the reaction vessel. The disappearance of dissolved oxygen was monitored as described in Example 2. The assay system was checked by measuring the inhibition in indomethacin, a known inhibitor of prostaglandin H synthase.

[1] = system: Arachidonic acid-induced inflammation (mouse ear); assay: Topical anti-inflammatory test against arachidonic acid-induced inflammation (mouse ear swelling); format: in vivo, mouse (ICR, male); conditions: for % Inhibition of swelling: 1 hr A.A.; for % Inhibition of swelling / Ear Thickness Measurement, Left Ear (No A.A.) / Ear Thickness Measurement, Right Ear (1 hr. A.A.) / Swelling (R - L): n = 5/group; for Ear Thickness Measurement, Left Ear (No A.A.) / Ear Thickness Measurement, Right Ear (1 hr. A.A.) / Swelling (R - L): mean ± SEM
Experimental: The anti-inflammatory studies were carried out utilizing a topical model with arachidonic acid as the inflammation-inducing compound. 15-LO initiates the metabolic pathway leading to the formation of the lipoxins by converting arachidonic acid to […] (15-HPETE). Lipoxins may share some of the bioactivity associated with leukotrienes, the end-product associated with the 5-LO arachidonic acid metabolic pathway. A solution of arachidonic acid was applied to the surface of a mouse ear with the test substance (THBH) […]. Ear swelling was measured after an additional 60 minutes as an index of inflammation. For all test procedures, % inhibition was calculated according to the formula
where Ic is the increase in ear thickness (mm) in control mice and It is the increase in ear thickness in treated mice (see Example 5).
Arachidonic acid (2 mg in 20 μl acetone:pyridine:water) in a ratio of 7:2:1) was applied topically to the anterior and posterior surfaces of the right ear of mice 30 min following similar application of hopanoid or control (20 μl). Swelling of the ear was then measured by a Dyer model micrometer gauge after 60 min as an index of inflammation. For all test procedures, % inhibition was calculated according to formula (1). Five mice/dose level of test substance were used with negative and positive control groups run concurrently. The positive control was indomethacin.

Soybean 15-LO = biological target: T2, Soybean 15-LO (Glycine max, UniProt P08170); assay: Assay of soybean 15-lipoxygenase (oxygen consumption, Clark oxygen electrode); format: biochemical
T2 construct: purchased Sigma Chemical Co. (St. Louis, Mo.) Type V
T2 sequence (P08170 1-839): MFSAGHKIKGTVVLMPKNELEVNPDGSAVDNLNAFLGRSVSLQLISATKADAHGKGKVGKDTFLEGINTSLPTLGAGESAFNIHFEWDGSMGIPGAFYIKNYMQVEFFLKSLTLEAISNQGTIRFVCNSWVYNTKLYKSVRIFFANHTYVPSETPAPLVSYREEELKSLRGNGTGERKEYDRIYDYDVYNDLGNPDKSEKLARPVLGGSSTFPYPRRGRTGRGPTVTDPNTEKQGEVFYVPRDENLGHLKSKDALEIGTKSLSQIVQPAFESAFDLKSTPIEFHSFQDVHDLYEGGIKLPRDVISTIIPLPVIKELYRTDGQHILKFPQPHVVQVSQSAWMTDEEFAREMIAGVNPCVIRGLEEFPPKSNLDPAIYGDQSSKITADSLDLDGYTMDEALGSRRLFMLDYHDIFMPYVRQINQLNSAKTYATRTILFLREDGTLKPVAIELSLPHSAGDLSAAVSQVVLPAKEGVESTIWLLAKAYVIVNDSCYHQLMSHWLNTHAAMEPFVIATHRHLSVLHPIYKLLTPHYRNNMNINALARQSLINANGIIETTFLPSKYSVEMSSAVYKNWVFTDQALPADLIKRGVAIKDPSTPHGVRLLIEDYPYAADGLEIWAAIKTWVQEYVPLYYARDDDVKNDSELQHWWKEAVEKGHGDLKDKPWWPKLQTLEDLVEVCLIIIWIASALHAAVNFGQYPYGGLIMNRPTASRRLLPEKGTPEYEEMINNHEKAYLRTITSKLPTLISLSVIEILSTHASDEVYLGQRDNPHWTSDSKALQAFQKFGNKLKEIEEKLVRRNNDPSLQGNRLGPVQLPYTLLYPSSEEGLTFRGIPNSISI
Experimental: Initial screening was carried out on three hopanoids isolated from Z. mobilis (FIGS. 1,b,c,d). These compounds were purified as described and screened for their ability to inhibit three enzymes known for their activity in the metabolism of arachidonic acid. These enzymes, soybean 15-lipoxygenase (15-LO), human 5-lipoxygenase (5-LO) and prostaglandin H synthase (Table I), are known to be inhibited by most non-steroidal anti-inflammatory drugs (Parthasarathy and Rankin. 1992. Prog. Lipid. Res. vol. 31, p. 127). Soybean 15-LO was inhibited by one of the hopanoids, tetrahydroxybacteriohopane (THBH), with an IC50 of about 10 μM. […] The two other natural hopanoid compounds, THBH-GA and THBH-Et, were also evaluated for their effect on soybean 15-LO.
Soybean 15 LO (Type V) was obtained from Sigma Chemical Co. (St. Louis, Mo.). The reaction mixture (1.8 ml) consisted of 0.1 M borate buffer, pH 9.0, 5 μl (0.5 μg, 315 units) of soybean 15-LO dissolved in borate buffer, and 25 μl of inhibitor dissolved in ethanol, and was preincubated for 3 min. The reaction was started by injecting 100 μl of substrate mixture (prepared fresh daily and consisting of 1.0 mg arachidonic acid sonicated in 2.3 ml 0.1 M borate buffer, pH 9.0) yielding a final concentration of 50.9 μM arachidonic acid in the reaction vessel. The rate of disappearance of dissolved oxygen was monitored with a Clark Oxygen Electrode (Yellow Springs Instruments, Yellow Springs, Ohio) with the temperature controlled at 25° C., according to the method described by Breton et al. (1993. Prostaalandins, Leucotrienes, and Fatty Acids. vol. 49, p. 929, herein incorporated by reference). The O2 concentration in an air-saturated aqueous solution at 25° C., was calculated to be 0.24 mM. The assay system was checked by measuring the inhibition of phenidone, a known inhibitor of soybean 15-LO. Each potential inhibitor was tested at each of the listed concentrations at least three times and enzyme activities presented are the means ± standard deviations, reported as relative activities (calculated assuming that the activity in the minus-inhibitor control=100). The actual activities of the controls (in units of μM O2 consumed/min/mg protein) are also presented as a footnote to Table I.

Human 5-LO = biological target: T3, Human 5-LO (Homo sapiens, UniProt P09917); assay: Assay of recombinant human 5-lipoxygenase (oxygen consumption); format: biochemical
T3 construct: purchased Oxford Biomedical Research Co., Oxford, Mich
T3 sequence (P09917 1-674): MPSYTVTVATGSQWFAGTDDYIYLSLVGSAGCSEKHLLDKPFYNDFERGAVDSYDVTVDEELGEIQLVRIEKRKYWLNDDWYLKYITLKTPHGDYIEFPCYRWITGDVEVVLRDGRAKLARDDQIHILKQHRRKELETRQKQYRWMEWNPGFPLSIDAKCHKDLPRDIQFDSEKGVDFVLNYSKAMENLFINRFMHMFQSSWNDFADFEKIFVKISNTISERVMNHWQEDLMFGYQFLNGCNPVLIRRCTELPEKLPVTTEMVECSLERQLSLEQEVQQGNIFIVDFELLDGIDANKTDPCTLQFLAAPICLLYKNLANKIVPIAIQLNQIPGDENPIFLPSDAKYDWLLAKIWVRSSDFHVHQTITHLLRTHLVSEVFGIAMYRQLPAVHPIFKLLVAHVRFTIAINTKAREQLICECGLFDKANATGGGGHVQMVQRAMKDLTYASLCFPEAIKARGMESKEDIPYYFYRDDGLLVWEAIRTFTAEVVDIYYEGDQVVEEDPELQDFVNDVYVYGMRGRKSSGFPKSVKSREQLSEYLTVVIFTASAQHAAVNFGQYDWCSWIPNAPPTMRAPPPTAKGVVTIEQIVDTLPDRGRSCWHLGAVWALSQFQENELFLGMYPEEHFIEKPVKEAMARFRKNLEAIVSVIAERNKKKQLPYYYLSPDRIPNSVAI
Experimental: The reaction mixture (1.80 ml) consisted of 0.25 mM CaCl2, 0.13 mM ATP, 7 μl of phosphatidylcholine (12 μg/2 ml ethanol), 25 μl of inhibitor dissolved in ethanol, and Tris-HCl buffer, 50 mM, pH 7.4, and preincubated for 3 min. The reaction was started by injecting 5 μl of arachidonic acid (3.8 mg/5 ml ethanol) yielding a final arachidonic acid concentration of 4.5 μM in the reaction mixture. The rate of disappearance of dissolved oxygen was monitored with an oxygen electrode at 37° C., as described in Example 2. The O2 concentration in an air-saturated aqueous solution at 37° C. was calculated to be 0.185 mM.

[2] = 25 μM, control = 100, read-out: Enzyme Activity (Relative ± S.D.)
[3] = control = 100, read-out: Enzyme Activity (Relative ± S.D.)
[4] = read-out: Enzyme Activity (Relative ± S.D.)
[5] = 50 μM, control = 100, read-out: Enzyme Activity (Relative ± S.D.)

COc1ccc2c(c1)c(CC(=O)O)c(C)n2C(=O)c1ccc(Cl)cc1 [Indomethacin, indomethacin, reference compound]
remaining activity at 2.4 µM (Prostaglandin H Synthase; 2.4 μM, control = 100, read-out: Enzyme Activity (Relative ± S.D.)): 7 ± 2% | % Inhibition of swelling ([1]; 3 mg/ear): 56% | Ear Thickness Measurement, Left Ear (No A.A.) ([1]; 3 mg/ear): 22.2 ± 0.5 × 0.01 mm | Ear Thickness Measurement, Right Ear (1 hr. A.A.) ([1]; 3 mg/ear): 29.4 ± 1.5 × 0.01 mm | Swelling (R - L) ([1]; 3 mg/ear): 7.2 ± 1.5 × 0.01 mm

O=C1CCN(c2ccccc2)N1 [Phenidone, phenidone, reference compound]
remaining activity at 25 µM (Soybean 15-LO; [2]): 34 ± 4% | remaining activity at 25 µM (Human 5-LO; [3]): 55 ± 2%

C[C@H](CC[C@@H](O)[C@@H](O)[C@@H](O)CO)[C@H]1CC[C@]2(C)[C@H]3CC[C@@H]4[C@@]5(C)CCCC(C)(C)[C@@H]5CC[C@@]4(C)[C@]3(C)CC[C@@H]12 [THBH, tetrahydroxybacteriohopane]
IC50 (Soybean 15-LO): ~10 µM | selectivity for 15-LO over 5-LO and prostaglandin H synthase (in words) (Soybean 15-LO): selectively inhibits 15-LO without inhibiting either 5-LO or prostaglandin H synthase | remaining activity at 6.75 µM (Soybean 15-LO; [4]): 68 ± 5% | remaining activity at 12.5 µM (Soybean 15-LO; [4]): 48 ± 9% | remaining activity at 25 µM (Soybean 15-LO; [4]): 15 ± 6% | remaining activity at 50 µM (Soybean 15-LO; [4]): 4 ± 3% | remaining activity at 100 µM (Soybean 15-LO; [4]): 11 ± 2% | remaining activity at 25 µM (Human 5-LO; [3]): 98 ± 2% | remaining activity at 50 µM (Human 5-LO; [5]): 97 ± 1% | inhibition of human 5-LO (in words) (Human 5-LO; 25 or 50 μM): not significantly inhibited | remaining activity at 25 µM (Prostaglandin H Synthase; [2]): 102 ± 3% | remaining activity at 50 µM (Prostaglandin H Synthase; [5]): 103 ± 2% | inhibition of prostaglandin H synthase (in words) (Prostaglandin H Synthase; 25 or 50 μM): not significantly inhibited | % Inhibition of swelling ([1]; 10 mg/ear): 41% | Ear Thickness Measurement, Left Ear (No A.A.) ([1]; 10 mg/ear): 22.0 ± 0.7 × 0.01 mm | Ear Thickness Measurement, Right Ear (1 hr. A.A.) ([1]; 10 mg/ear): 31.6 ± 1.5 × 0.01 mm | Swelling (R - L) ([1]; 10 mg/ear): 9.6 ± 1.1 × 0.01 mm | effect on arachidonic acid-caused swelling (in words) ([1]; mouse ear): significantly affects swelling caused by the application of arachidonic acid

CC(=O)OCC(OC(C)=O)C(OC(C)=O)C(CCC(C)C1CCC2(C)C1CCC1(C)C2CCC2C3(C)CCCC(C)(C)C3CCC21C)OC(C)=O (stereo not shown) [THBH-Acet]
inhibition or stimulation of soybean 15-LO (in words) (Soybean 15-LO): destroyed its ability to inhibit this 15-LO | remaining activity at 25 µM (Soybean 15-LO; [4]): 89 ± 11% | remaining activity at 50 µM (Soybean 15-LO; [4]): 114 ± 17%

CC(CCC(O)C(O)C(O)COC1C(N)C(O)C(O)C1(O)CO)C1CCC2(C)C1CCC1(C)C2CCC2C3(C)CCCC(C)(C)C3CCC21C (stereo not shown) [THBH-Et, tetrahydroxybacteriohopane ether]
inhibition or stimulation of soybean 15-LO (in words) (Soybean 15-LO): stimulated enzyme activity | remaining activity at 25 µM (Soybean 15-LO; [4]): 151 ± 10% | remaining activity at 50 µM (Soybean 15-LO; [4]): 250 ± 38%

CC(CCC(O)C(O)C(O)COC1OC(CO)C(O)C(O)C1N)C1CCC2(C)C1CCC1(C)C2CCC2C3(C)CCCC(C)(C)C3CCC21C (stereo not shown) [THBH-GA, tetrahydroxybacteriohopane glucosamine]
inhibition or stimulation of soybean 15-LO (in words) (Soybean 15-LO): stimulated enzyme activity | remaining activity at 25 µM (Soybean 15-LO; [4]): 172 ± 24% | remaining activity at 50 µM (Soybean 15-LO; [4]): 188 ± 14%
